The target of the assay is NR1/NR2A (Homo sapiens (Human), UniProt Q05586+Q12879). The assay is described as follows: FDSS Ca2+ influx inhibition assay in HEK293 cells expressing NR1/NR2A. Format: cell-based. The note with it: 3 μM glutamate, 3 μM glycine, 1 mM Ca2+. An outline of the steps: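 Fluo-8-loaded HEK293 NR1/NR2A cells preincubated 10 min with compound at 10 μM final (0.1% DMSO) in Ca2+/Mg2+-free HBSS with 20 mM HEPES. Stimulated with 3 μM glutamate, 3 μM glycine, 1 mM Ca2+; FDSS recording for 3 min, end/baseline fluorescence ratio compared with MK801.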

The mark [1] stands for this setting: inhibition relative to MK801, read-out: NR2A IC50.

Where two headings read alike, the source gives them in different places. Where only a bound is given, the exact number is not on record here.

Chain of NR1/NR2A (Q12879 23-1464, other chains not shown): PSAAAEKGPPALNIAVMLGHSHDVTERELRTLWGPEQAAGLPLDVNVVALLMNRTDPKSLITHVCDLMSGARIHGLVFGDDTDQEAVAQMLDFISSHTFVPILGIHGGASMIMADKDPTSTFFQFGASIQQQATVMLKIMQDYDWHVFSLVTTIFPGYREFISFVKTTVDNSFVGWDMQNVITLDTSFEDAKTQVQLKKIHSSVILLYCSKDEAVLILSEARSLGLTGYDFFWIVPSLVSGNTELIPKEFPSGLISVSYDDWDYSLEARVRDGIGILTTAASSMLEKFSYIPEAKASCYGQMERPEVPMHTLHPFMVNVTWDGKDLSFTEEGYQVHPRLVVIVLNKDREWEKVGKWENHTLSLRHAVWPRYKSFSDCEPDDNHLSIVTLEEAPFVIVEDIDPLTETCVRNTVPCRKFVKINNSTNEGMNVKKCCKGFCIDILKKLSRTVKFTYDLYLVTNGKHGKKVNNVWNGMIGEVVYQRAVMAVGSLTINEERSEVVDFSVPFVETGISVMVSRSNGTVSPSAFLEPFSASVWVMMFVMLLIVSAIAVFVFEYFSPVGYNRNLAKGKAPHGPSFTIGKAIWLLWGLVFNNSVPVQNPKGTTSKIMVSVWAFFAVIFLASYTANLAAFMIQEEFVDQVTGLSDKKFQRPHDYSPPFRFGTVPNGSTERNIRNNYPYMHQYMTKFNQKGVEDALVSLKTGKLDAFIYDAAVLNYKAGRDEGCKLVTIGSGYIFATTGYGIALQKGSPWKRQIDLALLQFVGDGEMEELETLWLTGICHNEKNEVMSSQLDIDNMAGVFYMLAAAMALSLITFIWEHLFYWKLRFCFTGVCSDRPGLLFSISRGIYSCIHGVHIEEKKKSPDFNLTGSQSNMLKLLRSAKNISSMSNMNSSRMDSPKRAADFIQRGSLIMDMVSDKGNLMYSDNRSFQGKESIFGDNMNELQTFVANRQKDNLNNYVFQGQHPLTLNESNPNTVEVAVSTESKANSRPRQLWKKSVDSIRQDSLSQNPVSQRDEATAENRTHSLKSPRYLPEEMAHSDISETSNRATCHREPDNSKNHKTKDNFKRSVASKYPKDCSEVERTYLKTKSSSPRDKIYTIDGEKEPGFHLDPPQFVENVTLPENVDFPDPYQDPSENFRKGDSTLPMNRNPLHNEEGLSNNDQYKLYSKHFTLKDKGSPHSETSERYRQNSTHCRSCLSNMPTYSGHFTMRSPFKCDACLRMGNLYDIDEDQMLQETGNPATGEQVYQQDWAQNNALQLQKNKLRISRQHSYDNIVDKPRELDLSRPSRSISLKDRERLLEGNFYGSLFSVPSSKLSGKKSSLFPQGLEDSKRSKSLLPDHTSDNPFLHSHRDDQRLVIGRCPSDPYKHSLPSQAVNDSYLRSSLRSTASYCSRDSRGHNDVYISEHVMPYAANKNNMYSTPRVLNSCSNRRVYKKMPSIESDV

In the case of `O=C(NCc1cncnc1)c1ccc(CNS(=O)(=O)c2ccc(F)c(Cl)c2)nc1` [6-(3-chloro-4-fluorobenzenesulfon-amidomethyl)-N-(pyrimidin-5-ylmethyl)pyridine-3-carboxamide], the IC50 under setting [1] was 10 µM and the IC50 (read-out: Binned Activity) was over 10 µM. On to `O=C(NCc1cccs1)c1ccc(CNS(=O)(=O)c2ccc(F)c(Cl)c2)nn1` [6-(3-chloro-4-fluorobenzenesulfon-amidomethyl)-N-(thiophen-2-ylmethyl)pyridazine-3-carboxamide], for which the IC50 runs as follows: under setting [1], 10 µM; (read-out: Binned Activity) over 10 µM. In the case of `CC(NC(=O)c1ccc(CNS(=O)(=O)c2ccc(F)c(Cl)c2)nn1)c1ccco1` (centres unmarked) [6-(3-chloro-4-fluorobenzenesulfon-amidomethyl)-N-[1-(furan-2-yl)ethyl]pyridazine-3-carboxamide], the IC50 under setting [1] was 10 µM and the IC50 (read-out: Binned Activity) is over 10 µM. Consider `CC(NC(=O)c1ccc(CNS(=O)(=O)c2ccc(F)c(Cl)c2)nn1)c1cccs1` (centres unmarked) [6-(3-chloro-4-fluorobenzenesulfon-amidomethyl)-N-[1-(thiophen-2-yl)ethyl]pyridazine-3-carboxamide], for which the IC50 is, setting by setting: under setting [1], 10 µM; (read-out: Binned Activity) over 10 µM. On to `COc1ccc(CCNC(=O)c2ccc(CNS(=O)(=O)c3ccc(F)c(Cl)c3)nn2)cc1` [6-(3-chloro-4-fluorobenzenesulfon-amidomethyl)-N-[2-(4-methoxyphenyl)ethyl] pyridazine-3-carboxamide], for which the IC50 is, setting by setting: under setting [1], 10 µM; (read-out: Binned Activity) over 10 µM. `CN(C)CCNC(=O)c1ccc(CNS(=O)(=O)c2ccc(F)c(Cl)c2)nc1` [6-(3-chloro-4-fluorobenzenesulfon-amidomethyl)-N-[2-(dimethylamino)ethyl] pyridine-3-carboxamide]: the IC50 is 10 µM under setting [1] and over 10 µM (read-out: Binned Activity). Regarding `CN(C)CCCNC(=O)c1ccc(CNS(=O)(=O)c2ccc(F)c(Cl)c2)nc1` [6-(3-chloro-4-fluorobenzenesulfon-amidomethyl)-N-[3-(dimethylamino)propyl] pyridine-3-carboxamide], the IC50 by setting is: under setting [1], 10 µM; (read-out: Binned Activity) over 10 µM.

Take `CN(C)CCCCNC(=O)c1ccc(CNS(=O)(=O)c2ccc(F)c(Cl)c2)nc1` [6-(3-chloro-4-fluorobenzenesulfon-amidomethyl)-N-[4-(dimethylamino)butyl] pyridine-3-carboxamide]: the IC50 under setting [1] amounted to 10 µM and the IC50 (read-out: Binned Activity) is over 10 µM. Take `Cc1cc(CNC(=O)c2ccc(CNS(=O)(=O)c3ccc(F)c(Cl)c3)nc2)n(C)n1` [6-(3-chloro-4-fluorobenzenesulfon-amidomethyl)-N-[(1,3-dimethyl-1H-pyrazol-5-yl)methyl]pyridine-3-carboxamide]: the IC50 runs as follows: under setting [1], 10 µM; (read-out: Binned Activity) over 10 µM. For `Cc1ccc(CNC(=O)c2ccc(CNS(=O)(=O)c3ccc(F)c(Cl)c3)nc2)n1C` [6-(3-chloro-4-fluorobenzenesulfon-amidomethyl)-N-[(1,5-dimethyl-1H-pyrrol-2-yl)methyl]pyridine-3-carboxamide] the same measures were 10 µM and over 10 µM. With `Cn1ccnc1CNC(=O)c1ccc(CNS(=O)(=O)c2ccc(F)c(Cl)c2)nc1` [6-(3-chloro-4-fluorobenzenesulfon-amidomethyl)-N-[(1-methyl-1H-imidazol-2-yl)methyl]pyridine-3-carboxamide], the IC50 (read-out: Binned Activity) was in the range of 0.1 to 1 µM. Consider `Cn1cnc(CNC(=O)c2ccc(CNS(=O)(=O)c3ccc(F)c(Cl)c3)nn2)c1` [6-(3-chloro-4-fluorobenzenesulfon-amidomethyl)-N-[(1-methyl-1H-imidazol-4-yl)methyl]pyridazine-3-carboxamide], for which the IC50 runs as follows: under setting [1], 10 µM; (read-out: Binned Activity) over 10 µM. The like results for `Cn1cnc(CNC(=O)c2ccc(CNS(=O)(=O)c3ccc(F)c(Cl)c3)nc2)c1` [6-(3-chloro-4-fluorobenzenesulfon-amidomethyl)-N-[(1-methyl-1H-imidazol-4-yl)methyl]pyridine-3-carboxamide] were, in that order, 10 µM and over 10 µM.

With `Cn1nccc1CNC(=O)c1ccc(CNS(=O)(=O)c2ccc(F)c(Cl)c2)nc1` [6-(3-chloro-4-fluorobenzenesulfon-amidomethyl)-N-[(1-methyl-1H-pyrazol-5-yl)methyl]pyridine-3-carboxamide], the IC50 by setting is: under setting [1], 10 µM; (read-out: Binned Activity) over 10 µM. In the case of `Cn1cccc1CNC(=O)c1ccc(CNS(=O)(=O)c2ccc(F)c(Cl)c2)nc1` [6-(3-chloro-4-fluorobenzenesulfon-amidomethyl)-N-[(1-methyl-1H-pyrrol-2-yl)methyl]pyridine-3-carboxamide], the IC50 runs as follows: under setting [1], 10 µM; (read-out: Binned Activity) over 10 µM. `C[C@@H](NC(=O)c1ccc(CNS(=O)(=O)c2ccc(F)c(Cl)c2)nn1)c1cncs1` [6-(3-chloro-4-fluorobenzenesulfon-amidomethyl)-N-[(1R)-1-(1,3-thiazol-5-yl)ethyl]pyridazine-3-carboxamide]: the IC50 runs as follows: under setting [1], 10 µM; (read-out: Binned Activity) over 10 µM. Take `C[C@@H](NC(=O)c1ccc(CNS(=O)(=O)c2ccc(F)c(Cl)c2)nc1)c1cncs1` [6-(3-chloro-4-fluorobenzenesulfon-amidomethyl)-N-[(1R)-1-(1,3-thiazol-5-yl)ethyl]pyridine-3-carboxamide]: the IC50 under setting [1] is 10 µM. With `COc1ccccc1CNC(=O)c1ccc(CNS(=O)(=O)c2ccc(F)c(Cl)c2)nc1` [6-(3-chloro-4-fluorobenzenesulfon-amidomethyl)-N-[(2-methoxyphenyl)methyl] pyridine-3-carboxamide], the IC50 under setting [1] is 10 µM and the IC50 (read-out: Binned Activity) is over 10 µM. `COc1cc(CNC(=O)c2ccc(CNS(=O)(=O)c3ccc(F)c(Cl)c3)nc2)ccn1` [6-(3-chloro-4-fluorobenzenesulfon-amidomethyl)-N-[(2-methoxypyridin-4-yl)methyl]pyridine-3-carboxamide]: the IC50 is 10 µM under setting [1] and over 10 µM (read-out: Binned Activity). For `Cc1nc(CNC(=O)c2ccc(CNS(=O)(=O)c3ccc(F)c(Cl)c3)nn2)cs1` [6-(3-chloro-4-fluorobenzenesulfon-amidomethyl)-N-[(2-methyl-1,3-thiazol-4-yl)methyl]pyridazine-3-carboxamide] the same measures were 10 µM and over 10 µM. For `Cc1nc(CNC(=O)c2ccc(CNS(=O)(=O)c3ccc(F)c(Cl)c3)nc2)cs1` [6-(3-chloro-4-fluorobenzenesulfon-amidomethyl)-N-[(2-methyl-1,3-thiazol-4-yl)methyl]pyridine-3-carboxamide] the same measures were 10 µM and over 10 µM.

With `Cc1ncc(CNC(=O)c2ccc(CNS(=O)(=O)c3ccc(F)c(Cl)c3)nn2)s1` [6-(3-chloro-4-fluorobenzenesulfon-amidomethyl)-N-[(2-methyl-1,3-thiazol-5-yl)methyl]pyridazine-3-carboxamide], the IC50 is 10 µM under setting [1] and over 10 µM (read-out: Binned Activity).

`COc1cccc(CNC(=O)c2ccc(CNS(=O)(=O)c3ccc(F)c(Cl)c3)nn2)c1` [6-(3-chloro-4-fluorobenzenesulfon-amidomethyl)-N-[(3-methoxyphenyl)methyl] pyridazine-3-carboxamide]: the IC50 under setting [1] was found to be 10 µM and the IC50 (read-out: Binned Activity) is over 10 µM. With `COc1ccc(CNC(=O)c2ccc(CNS(=O)(=O)c3ccc(F)c(Cl)c3)nn2)cc1` [6-(3-chloro-4-fluorobenzenesulfon-amidomethyl)-N-[(4-methoxyphenyl)methyl] pyridazine-3-carboxamide], the IC50 is, setting by setting: under setting [1], 10 µM; (read-out: Binned Activity) over 10 µM. Regarding `COc1ccc(CNC(=O)c2ccc(CNS(=O)(=O)c3ccc(F)c(Cl)c3)nc2)cc1` [6-(3-chloro-4-fluorobenzenesulfon-amidomethyl)-N-[(4-methoxyphenyl)methyl] pyridine-3-carboxamide], the IC50 by setting is: under setting [1], 10 µM; (read-out: Binned Activity) over 10 µM.

For `Cc1csc(CNC(=O)c2ccc(CNS(=O)(=O)c3ccc(F)c(Cl)c3)nc2)n1` [6-(3-chloro-4-fluorobenzenesulfon-amidomethyl)-N-[(4-methyl-1,3-thiazol-2-yl)methyl]pyridine-3-carboxamide], the IC50 by setting is: under setting [1], 10 µM; (read-out: Binned Activity) over 10 µM. For `Cc1ncsc1CNC(=O)c1ccc(CNS(=O)(=O)c2ccc(F)c(Cl)c2)nn1` [6-(3-chloro-4-fluorobenzenesulfon-amidomethyl)-N-[(4-methyl-1,3-thiazol-5-yl)methyl]pyridazine-3-carboxamide] the same measures were 10 µM and over 10 µM.

Take `Cc1ncsc1CNC(=O)c1ccc(CNS(=O)(=O)c2ccc(F)c(Cl)c2)nc1` [6-(3-chloro-4-fluorobenzenesulfon-amidomethyl)-N-[(4-methyl-1,3-thiazol-5-yl)methyl]pyridine-3-carboxamide]: the IC50 runs as follows: under setting [1], 10 µM; (read-out: Binned Activity) over 10 µM.

For `Cc1ccncc1CNC(=O)c1ccc(CNS(=O)(=O)c2ccc(F)c(Cl)c2)nn1` [6-(3-chloro-4-fluorobenzenesulfon-amidomethyl)-N-[(4-methylpyridin-3-yl)methyl]pyridazine-3-carboxamide], the IC50 is 10 µM under setting [1] and over 10 µM (read-out: Binned Activity). With `Cc1ccncc1CNC(=O)c1ccc(CNS(=O)(=O)c2ccc(F)c(Cl)c2)nc1` [6-(3-chloro-4-fluorobenzenesulfon-amidomethyl)-N-[(4-methylpyridin-3-yl)methyl]pyridine-3-carboxamide], the IC50 (read-out: Binned Activity) lay in the range of 1 to 10 µM. Regarding `Cc1nnc(CNC(=O)c2ccc(CNS(=O)(=O)c3ccc(F)c(Cl)c3)nc2)o1` [6-(3-chloro-4-fluorobenzenesulfon-amidomethyl)-N-[(5-methyl-1,3,4-oxadiazol-2-yl)methyl]pyridine-3-carboxamide], the IC50 reads like this: under setting [1], 10 µM; (read-out: Binned Activity) over 10 µM.

The record behind these values is patent US9963434B2, “N-arylmethyl sulfonamide negative modulators of NR2A” (LUC THERAPEUTICS, priority 2013, dated 2018).
